Experimental data published in patent US6737383B1, “Herbicidal oxadiazolidines” (priority 1999, dated 2004).

Tests used:
rape = assay: Test B pre/postemergence rape; format: in vivo, Brassica napus
Procedure, shortened: (§1)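 Response is a visual 0-to-10 score relative to untreated plants, where 0 means no effect and 10 means complete control, taken twelve to sixteen days after application. Treatments went onto soil at planting and onto foliage of 1- to 4-leaf plants, using a surfactant-containing non-phytotoxic solvent.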

wild oat = assay: Test B pre/postemergence wild oat; format: in vivo, Avena fatua
Procedure, shortened: as §1

soybean = assay: Test B pre/postemergence soybean; format: in vivo, Glycine max
Procedure, shortened: as §1

wheat = assay: Test B pre/postemergence wheat; format: in vivo, Triticum aestivum
Procedure, shortened: as §1

sugar beet = assay: Test B pre/postemergence sugar beet; format: in vivo, Beta vulgaris
Procedure, shortened: as §1

duck salad = assay: Test B flood test duck salad; format: in vivo, Heteranthera limosa
Procedure, shortened: (§2)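 Read-out is a visual response score from 0 (no effect) to 10 (complete control), assigned by comparison with untreated controls. Treatment was applied at the 2-leaf stage, and plants stayed in the greenhouse for twelve to sixteen days before scoring.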

bedstraw = assay: Test B pre/postemergence bedstraw; format: in vivo, Galium aparine; settings: Postemergence, Rate 125 g/ha; scale 0 to 10, 0 is no effect, 10 is complete control
Procedure, shortened: as §1

crabgrass = assay: Test B pre/postemergence crabgrass; format: in vivo, Digitaria sanguinalis
Procedure, shortened: as §1

corn = assay: Test B pre/postemergence corn; format: in vivo, Zea mays
Procedure, shortened: as §1

purple nutsedge = assay: Test B pre/postemergence purple nutsedge; format: in vivo, Cyperus rotundus
Procedure, shortened: as §1

bamyardgrass = assay: Test B flood test barnyardgrass; format: in vivo, Echinochloa crus-galli
Procedure, shortened: as §2

giant foxtail = assay: Test B pre/postemergence giant foxtail; format: in vivo, Setaria faberii
Procedure, shortened: as §1

smallflower flatsedge = assay: Test B flood test smallflower flatsedge; format: in vivo, Cyperus difformis
Procedure, shortened: as §2

cocklebur = assay: Test B pre/postemergence cocklebur; format: in vivo, Xanthium strumarium
Procedure, shortened: as §1

rice = assay: Test B flood test rice; format: in vivo, Oryza sativa
Procedure, shortened: as §2

pigweed = assay: Test B pre/postemergence pigweed; format: in vivo, Amaranthus retroflexus
Procedure, shortened: as §1

blackgrass = assay: Test B pre/postemergence blackgrass; format: in vivo, Alopecurus myosuroides
Procedure, shortened: as §1

surinam grass = assay: Test B pre/postemergence surinam grass; format: in vivo, Brachiaria decumbens
Procedure, shortened: as §1

morningglory = assay: Test B pre/postemergence morningglory; format: in vivo, Ipomoea hederacea
Procedure, shortened: as §1

velvetleaf = assay: Test B pre/postemergence velvetleaf; format: in vivo, Abutilon theophrasti
Procedure, shortened: as §1

[1] = Postemergence, Rate 125 g/ha, scale 0 to 10, 0 is no effect, 10 is complete control
[2] = Postemergence, Rate 500 g/ha, scale 0 to 10, 0 is no effect, 10 is complete control
[3] = Preemergence, Rate 62 g/ha, scale of 0 to 10 where 0 is no effect and 10 is complete control
[4] = Preemergence, Rate 125 g/ha, scale 0 to 10, 0 is no effect, 10 is complete control
[5] = Preemergence, Rate 500 g/ha, scale 0 to 10, 0 is no effect, 10 is complete control
[6] = Rate 62 g/ha, Postemergence, scale 0 to 10 (0 no effect, 10 complete control)
[7] = Rate 62 g/ha, flood test species, Pre-emergence, visual evaluation after twelve to sixteen days
[8] = Rate 125 g/ha, under heading Pre-emergence, flood test species, visual evaluation after twelve to sixteen days
[9] = Rate 250 g/ha, Pre-emergence (flood test species), scale 0 to 10, 0 is no effect, 10 is complete control
[10] = Rate 500 g/ha, Pre-emergence section of Table B, 0 to 10 scale (0 no effect, 10 complete control)
[11] = Postemergence, Rate 250 g/ha, scale 0 to 10
[12] = Preemergence, Rate 250 g/ha, scale 0 to 10, 0 is no effect, 10 is complete control

CC(C)N(C(=O)n1oc(=O)n(CC(=O)C2CC2)c1=O)c1ccc(F)cc1F [Compound 490]
Rape plant response rating (rape; [1]): 0
Plant response rating, Rape (rape; [2]): 0
Plant response rating, Rape (rape; [3]): 0
Rape plant response rating (rape; [4]): 1
Rape plant response rating (rape; [5]): 8
Rape plant response rating (rape; [6]): 0
Wild oats plant response rating (wild oat; [1]): 5
Plant response rating, Wild oats (wild oat; [2]): 7
Plant response rating, Wild oats (wild oat; [3]): 6
Wild oats plant response rating (wild oat; [4]): 7
Wild oats plant response rating (wild oat; [5]): 8
Wild oats plant response rating (wild oat; [6]): 5
Soybean plant response rating (soybean; [1]): 5
Plant response rating, Soybean (soybean; [2]): 6
Plant response rating, Soybean (soybean; [3]): 0
Soybean plant response rating (soybean; [4]): 0
Soybean plant response rating (soybean; [5]): 4
Soybean plant response rating (soybean; [6]): 4
Wheat plant response rating (wheat; [1]): 0
Plant response rating, Wheat (wheat; [2]): 0
Plant response rating, Wheat (wheat; [3]): 0
Wheat plant response rating (wheat; [4]): 0
Wheat plant response rating (wheat; [5]): 4
Wheat plant response rating (wheat; [6]): 0
Sugarbeets plant response rating (sugar beet; [1]): 0
Plant response rating, Sugarbeets (sugar beet; [2]): 0
Plant response rating, Sugarbeets (sugar beet; [3]): 0
Sugarbeets plant response rating (sugar beet; [4]): 0
Sugarbeets plant response rating (sugar beet; [5]): 5
Sugarbeets plant response rating (sugar beet; [6]): 0
Plant response rating, Ducksalad (0 to 10 scale, 0 is no effect, 10 is complete control) (duck salad; [7]): 0
Ducksalad plant response rating (0 to 10 scale, 0 is no effect, 10 is complete control) (duck salad; [8]): 0
Ducksalad plant response rating (duck salad; [9]): 0
Ducksalad plant response rating (duck salad; [10]): 0
Bedstraw plant response rating (bedstraw): 3
Crabgrass plant response rating (crabgrass; [1]): 6
Crabgrass plant response rating (crabgrass; [11]): 6
Plant response rating, Crabgrass (crabgrass; [2]): 7
Plant response rating, Crabgrass (crabgrass; [3]): 8
Crabgrass plant response rating (crabgrass; [4]): 9
Crabgrass plant response rating (crabgrass; [5]): 10
Crabgrass plant response rating (crabgrass; [6]): 3
Corn plant response rating (corn; [1]): 0
Corn plant response rating (corn; [11]): 0
Plant response rating, Corn (corn; [2]): 0
Plant response rating, Corn (corn; [3]): 0
Corn plant response rating (corn; [4]): 0
Corn plant response rating (corn; [5]): 5
Corn plant response rating (corn; [6]): 0
Nutsedge plant response rating (purple nutsedge; [1]): 0
Plant response rating, Nutsedge (purple nutsedge; [2]): 0
Plant response rating, Nutsedge (purple nutsedge; [3]): 0
Nutsedge plant response rating (purple nutsedge; [4]): 0
Nutsedge plant response rating (purple nutsedge; [5]): 0
Nutsedge plant response rating (purple nutsedge; [6]): 0
Plant response rating, Barnyardgrass (0 to 10 scale, 0 is no effect, 10 is complete control) (bamyardgrass; [7]): 0
Barnyardgrass plant response rating (0 to 10 scale, 0 is no effect, 10 is complete control) (bamyardgrass; [8]): 0
Barnyardgrass plant response rating (bamyardgrass; [9]): 0
Barnyardgrass plant response rating (bamyardgrass; [10]): 0
Giant foxtail plant response rating (giant foxtail; [1]): 8
Plant response rating, Giant foxtail (giant foxtail; [2]): 8
Plant response rating, Giant foxtail (giant foxtail; [3]): 9
Giant foxtail plant response rating (giant foxtail; [4]): 9
Giant foxtail plant response rating (giant foxtail; [5]): 10
Giant foxtail plant response rating (giant foxtail; [6]): 2
Plant response rating, S. Flatsedge (0 to 10 scale, 0 is no effect, 10 is complete control) (smallflower flatsedge; [7]): 0
S. Flatsedge plant response rating (0 to 10 scale, 0 is no effect, 10 is complete control) (smallflower flatsedge; [8]): 0
S. Flatsedge plant response rating (smallflower flatsedge; [9]): 0
S. Flatsedge plant response rating (smallflower flatsedge; [10]): 0
Cocklebur plant response rating (cocklebur; [1]): 0
Cocklebur plant response rating (cocklebur; [11]): 0
Plant response rating, Cocklebur (cocklebur; [2]): 0
Cocklebur plant response rating (cocklebur; [4]): 0
Cocklebur plant response rating (cocklebur; [12]): 0
Cocklebur plant response rating (cocklebur; [6]): 0
Plant response rating, Rice (0 to 10 scale, 0 is no effect, 10 is complete control) (rice; [7]): 0
Rice plant response rating (0 to 10 scale, 0 is no effect, 10 is complete control) (rice; [8]): 0
Rice plant response rating (rice; [9]): 0
Rice plant response rating (rice; [10]): 0
Redroot pigweed plant response rating (pigweed; [1]): 0
Plant response rating, Redroot pigweed (pigweed; [2]): 2
Plant response rating, Redroot pigweed (pigweed; [3]): 5
Redroot pigweed plant response rating (pigweed; [4]): 7
Redroot pigweed plant response rating (pigweed; [5]): 8
Redroot pigweed plant response rating (pigweed; [6]): 0
Blackgrass plant response rating (blackgrass; [1]): 4
Plant response rating, Blackgrass (blackgrass; [2]): 5
Plant response rating, Blackgrass (blackgrass; [3]): 7
Blackgrass plant response rating (blackgrass; [4]): 8
Blackgrass plant response rating (blackgrass; [12]): 9
Blackgrass plant response rating (blackgrass; [5]): 9
Blackgrass plant response rating (blackgrass; [6]): 2
B. signalgrass plant response rating (surinam grass; [1]): 4
B. signalgrass plant response rating (surinam grass; Postemergence, Rate 250 g/ha, scale 0 to 10, 0 no effect, 10 complete control): 4
Plant response rating, B. signalgrass (surinam grass; [2]): 7
Plant response rating, B. signalgrass (surinam grass; [3]): 3
B. signalgrass plant response rating (surinam grass; [4]): 5
B. signalgrass plant response rating (surinam grass; [12]): 6
B. signalgrass plant response rating (surinam grass; [5]): 8
B. signalgrass plant response rating (surinam grass; [6]): 2
Morningglory plant response rating (morningglory; [1]): 3
Plant response rating, Morningglory (morningglory; [2]): 3
Plant response rating, Morningglory (morningglory; [3]): 0
Morningglory plant response rating (morningglory; [4]): 0
Morningglory plant response rating (morningglory; [5]): 0
Morningglory plant response rating (morningglory; [6]): 2
Velvetleaf plant response rating (velvetleaf; [1]): 0
Plant response rating, Velvetleaf (velvetleaf; [2]): 1
Plant response rating, Velvetleaf (velvetleaf; [3]): 0
Velvetleaf plant response rating (velvetleaf; [4]): 0
Velvetleaf plant response rating (velvetleaf; [5]): 4
Velvetleaf plant response rating (velvetleaf; [6]): 0
